Measurements from patent US20130252983A1, “ACTIVATING PHOSPHORYLATION SITE ON GLUTAMINASE C” (CORNELL UNIVERSITY, priority 2010, published 2013).
Substitutions are numbered along the chain they refer to. “Also recorded” adds a separate entry of the source.

Legend:
GAC (S103A) = biological target: T1, GAC (S103A) (Mus musculus, UniProt D3Z7P3, S103A); test: Glutaminase activity of immunoprecipitated GAC (S103A) from treated Dbl-transformed cells; assay type: cell-based; settings: 10 μM, 48 hours
T1 construct: expressed in transfected cells; host or cells: Dbl-transformed NIH 3T3 cells
T1 sequence (D3Z7P3 55-603 isoform D3Z7P3-2 S103A): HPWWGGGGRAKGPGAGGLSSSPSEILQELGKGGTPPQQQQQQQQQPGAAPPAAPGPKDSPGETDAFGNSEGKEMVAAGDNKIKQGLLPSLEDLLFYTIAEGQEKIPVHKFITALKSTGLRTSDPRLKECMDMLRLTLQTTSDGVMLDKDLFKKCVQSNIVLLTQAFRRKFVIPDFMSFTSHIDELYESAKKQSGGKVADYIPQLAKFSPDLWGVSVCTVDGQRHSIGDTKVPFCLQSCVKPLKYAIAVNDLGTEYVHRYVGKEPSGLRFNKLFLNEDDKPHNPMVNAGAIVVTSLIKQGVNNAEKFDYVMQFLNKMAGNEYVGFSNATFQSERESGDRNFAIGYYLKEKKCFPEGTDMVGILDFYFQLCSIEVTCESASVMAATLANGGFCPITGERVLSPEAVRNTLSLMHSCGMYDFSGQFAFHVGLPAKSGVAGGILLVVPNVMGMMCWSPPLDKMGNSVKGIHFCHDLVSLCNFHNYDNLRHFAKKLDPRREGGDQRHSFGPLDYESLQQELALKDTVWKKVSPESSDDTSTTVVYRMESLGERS
Method: Next the effect of the substitution of an alanine for a serine at amino acid 103 on the enzymatic activity of GAC was examined, as well as its sensitivity to the small molecule, 968. […] Following transfection, the cells were treated for 48 hours with 968 (10 μM) and then harvested. The different GAC proteins were then isolated by immunoprecipitation and assayed for their glutaminase activity in the absence (i.e., basal activity) and presence of phosphate (FIG. 24). […] Initially, the high glutaminase activity of the GAC (S103A) mutant was surprising as it had been predicted that this phospho-defective mutant should have a reduced enzymatic activity. […] When this hydrogen bond is broken, either by mutating the serine to an alanine or upon the phosphorylation of this serine residue, GAC transitions to an active conformation. […] Thus, Serine 103 plays a critical role in the regulation of the glutaminase activity of GAC.

MDA-MB231 cells = test: Growth to high density and in low serum, MDA-MB231; assay type: cell-based, human; settings: 10 μM
Method: FIGS. 2A-G illustrate effects of 968 on the transforming activity of constitutively active Rho GTPases and human breast cancer cells. […] Cells were scored after 14 days and plotted as the percentage of the total number of colonies greater than 50 μm in diameter. Data represent the average of 3 experiments (±s.d.). […] Data represent the average of 3 experiments (±s.d.). […] Data represent the average of 3 experiments (±s.d.). […] After 24 hours at 37° C., the migratory cells were fixed, stained with GIEMSA, and counted. Data represent the average of 3 experiments (±s.d.). […] Data represent the average of 3 experiments (±s.d.). […] Data represent the average of 3 experiments (±s.d.). […] Data represent the average of 3 experiments (±s.d.).

V5-tagged wild-type GAC = biological target: T2, V5-tagged wild-type GAC (Mus musculus, UniProt D3Z7P3); test: Glutaminase activity of V5-GAC immunoprecipitated from treated Dbl-transformed cells; assay type: cell-based; settings: 10 μM, 48 hours
T2 construct: expressed in transfected cells; host or cells: NIH 3T3 cells (stably expressing Dbl, or parental), transient transfection
T2 sequence (D3Z7P3 55-603 isoform D3Z7P3-2 limits assumed): T1 sequence (D3Z7P3 55-603 isoform D3Z7P3-2 S103A) with A49S
Excerpt: FIGS. 4A-E illustrate the role of glutaminase C activity in cellular transformation. […] Data represent the average of 3 experiments (±s.d.). […] Data represent the average of 3 experiments (±s.d.). […] 100% represents the activity measured in untreated Dbl-transformed cells. The data represent the average of 2 experiments. […] 100% represents the activity measured in untreated SKBR3 cells. The data represent the average of 2 experiments. […] Data represent the average of 3 experiments (±s.d.).
NIH 3T3 cells stably expressing oncogenic Dbl were transiently transfected with DNA encoding VS-tagged GAC, and cells were treated with either 968 or BA-968 (10 μM) as indicated for 48 hours. The cells were then harvested and the ectopically expressed GAC was isolated by immunoprecipitation via the V5 tag. The samples were then assayed for glutaminase activity in the absence of phosphate (top panel) and the relative expression levels of V5-GAC was determined by Western blotting using an anti-V5 antibody (bottom panel).
Next the effect of the substitution of an alanine for a serine at amino acid 103 on the enzymatic activity of GAC was examined, as well as its sensitivity to the small molecule, 968. […] Following transfection, the cells were treated for 48 hours with 968 (10 μM) and then harvested. […]

## CN(C)c1ccc(C2Nc3ccc4ccccc4c3C3=C2C(=O)CC(C)(C)C3)cc1Br (centres unmarked) [Compound 968, 5-[3-bromo-4-(dimethylamino)phenyl]-2,2-dimethyl-2,3,5,6-tetrahydrobenzo[a]]
GAC (S103A)
  glutaminase activity of GAC (S103A): not affected
MDA-MB231 cells; 1% fetal bovine serum
  growth in low serum: inhibits their growth
MDA-MB231 cells; 10% fetal bovine serum, 6 days
  growth to high density: inhibits their growth
V5-tagged wild-type GAC
  basal glutaminase activity of wild-type GAC: susceptible to treatment
V5-tagged wild-type GAC; absence of phosphate
  GA activity of immunoprecipitated V5-GAC: inhibited; also recorded: effective inhibitors of GAC activity
